Data as given in US11207360B2, “Composition for the treatment of dysbiosis of the intestinal microbiota” (NUTRAVIS S.R.L., priority 2017, dated 2021).

Assays:
Format in all cases: cell-based
Settings in all cases: liposomes containing 1 mg beta-carotene, 24 hours at 37° C.
Bacillus coagulans = assay: Abscisic acid (ABA) production by Bacillus coagulans culture incubated with carotenoid liposomes, ABA ELISA
Protocol: Lyophilized probiotics were grown separately in LB medium in shake-flasks equipped with vented cap at 37° C. for 24 hours. After growth, each probiotic suspension was diluted with LB medium to reach approximately 0.1 O.D. at 600 nm. 3.5 ml of each diluted suspension was added with 500 μl of: i) empty liposomes, […] iii) liposomes containing 0.1 mg xanthophyll, iv) both liposomes containing carotene and xanthophyll, and incubated with shaking at 350 rpm at 37° C. for 24 hours. At the end of the incubation, each probiotic suspension was pelleted by centrifugation at 3000×g for 10 minutes. Supernatant was recovered, added with 4 vol of methanol and stored at −20° C. for 24 hours. Pellet was washed once with saline buffer, centrifuged at 3000×g for 10 minutes, resuspended in 2 ml of methanol, sonicated in ice and stored at −20° C. for 24 hours. 4 mg of carotene and 0.4 mg of xanthophyll were dissolved each in 200 μl of chloroform by vortexing. For each liposome preparation 200 mg of lecithin were dissolved in 500 μl of chloroform. Both carotene and xanthophyll chloroform solutions were added, separately, to the chloroform lecithin solution, vortexed, and completely dried with N2 to create a thin layer on the inner wall of a glass Corex. […] Quantification of abscisic acid (ABA) was performed on both pellets and supernatants obtained as described above (see Bacterial cell culture). […]

[1] = system: Bacillus coagulans, Lactobacillus Plantarum; assay: Abscisic acid production by culture of Bacillus coagulans and Lactobacillus Plantarum incubated with liposomes, ABA ELISA
Protocol: (§1) Lyophilized probiotics were grown separately in LB medium in shake-flasks equipped with vented cap at 37° C. for 24 hours. After growth, each probiotic suspension was diluted with LB medium to reach approximately 0.1 O.D. at 600 nm. 3.5 ml of each diluted suspension was added with 500 μl of:
(§2) ii) liposomes containing 1 mg carotene,
(§3) iii) liposomes containing 0.1 mg xanthophyll,
(§4) iv) both liposomes containing carotene and xanthophyll, and
(§5) incubated with shaking at 350 rpm at 37° C. for 24 hours.
(§6) At the end of the incubation, each probiotic suspension was pelleted by centrifugation at 3000×g for 10 minutes. Supernatant was recovered, added with 4 vol of methanol and stored at −20° C. for 24 hours. Pellet was washed once with saline buffer, centrifuged at 3000×g for 10 minutes, resuspended in 2 ml of methanol, sonicated in ice and stored at −20° C. for 24 hours.
(§7) 4 mg of carotene and 0.4 mg of xanthophyll were dissolved each in 200 μl of chloroform by vortexing. For each liposome preparation 200 mg of lecithin were dissolved in 500 μl of chloroform. Both carotene and xanthophyll chloroform solutions were added, separately, to the chloroform lecithin solution, vortexed, and completely dried with N2 to create a thin layer on the inner wall of a glass Corex. […]
(§8) Quantification of abscisic acid (ABA) was performed on both pellets and supernatants obtained as described above (see Bacterial cell culture). […]

Lactobacillus Rhamnosus = assay: Abscisic acid production by Lactobacillus Rhamnosus culture incubated with liposomes, ABA ELISA
Protocol: as §1, §2, §3, §4, §5, §6, §7, §8

## CC1=C(/C=C/C(C)=C/C=C/C(C)=C/C=C/C=C(C)/C=C/C=C(C)/C=C/C2=C(C)CCCC2(C)C)C(C)(C)CCC1 [beta-carotene]
Bacillus coagulans
  production of abscisic acid, times higher than culture with empty liposomes (FIG. 2): about 5 times
Bacillus coagulans; p=0.0093
  production of abscisic acid, times higher than culture with empty liposomes (FIG. 1A): about 6.6 times
[1]
  production of abscisic acid, times higher than culture with empty liposomes (FIG. 1B): about 7.5 times
Lactobacillus Rhamnosus
  production of abscisic acid, times higher than culture with empty liposomes (FIG. 1C): about 20 times
